Experimental findings from patent US7285618B1, “Polypeptides having neutrophil stimulating activity” (Japan Tobacco Inc., priority 2000, dated 2007) are described below.

Like-named read-outs stand apart in the source and are kept apart here. Where no end group is shown, it is not given here.

The test system of data set [1] is monocyte and lymphocyte mixed cells. The experiment in a line: β-HA secretion from monocyte and lymphocyte mixed cells. Format: cell-based, human.
In data set [2] the test system is differentiated HL60 cells.
Experimental: (§7) The differentiated HL60 cells and human leukocyte cells were washed three times with ice-cooled 0.1% BSA containing Hepes buffered Hank's solution (HBHS; 10 mM Hepes, 136.9 mM NaCl, 5.4 mM KCl, 1.2 mM CaCl2, 0.44 mM KH2PO4, 0.49 mM MgCl2, 0.41 mM MgSO4, 0.34 mM Na2HPO4, 5.5 mM glucose, 4.2 mM NaHCO3, pH 7.4). A cell suspension was prepared for each cell type at 5.5×10^6 cells/ml. Cytochalasin B and DNase I were then added to each cell suspension at a final concentration of 5 μg/ml. Ninety μl of each cell suspension was then transferred to an ice-cooled tube (5.0×10^5 cells/tube) and incubated at 37° C. for 10 minute. To each tube, either one of the fractions of polypeptide (or extract) in solution (10 μl) was added and incubated at 37° C. for 10 minutes to stimulate the cells. Immediately after the treatment, 200 μl of ice-cooled reaction quenching buffer (25 mM Tris, 123 mM NaCl, 2.7 mM KCl, pH 7.4) was added to the cell suspensions to stop the stimulation. Thereafter, the tubes were spun down at 4° C. for 60 seconds to precipitate the cell pellets and the β-HA activity and the lactate dehydrogenase (LDH) activity in the supernatant were measured.
(§8) The amount of LDH secreted into the reaction mixture was determined by measuring the absorbance (340 nm) of NADH generated by reduction of that NAD involves dehydrogenation of lactate. Reaction was initiated by adding a 400 μl of a substrate-buffer solution (125 mM 2-amino-2-methyl-1-propanol, 125 mM lithium lactate, 6.25 mM NAD, pH 9.5) to a 100 μl of the reaction supernatant. Following a 1-hr incubation at 37° C., the mixture was quenched in ice water to stop the reaction and the absorbance at 340 nm was measured.
(§9) The LDH enzyme activity secreted in the reaction mixture was expressed as the percentage of the total enzyme activity in cells (%/total) which was the enzyme activity of LDH released upon disruption of the cells with 0.05% Triton X-100.
The subject of data set [3] is differentiated HL60 cells. The data set is described as follows: Intracellular Ca2+ concentration (fura-2), differentiated HL60 cells. Format: cell-based, human. To be noted: for increase of intracellular Ca2+ concentration in the absence of extracellular Ca2+: absence of Ca2+ (−) versus presence (+); for increase in intracellular Ca2+ concentration upon stimulation after PTX treatment: cells treated with 50 ng/ml PTX for 16 hours; for intracellular Ca2+ concentration: differentiated HL60 cells (+); for intracellular Ca2+ concentration with or without extracellular Ca2+: extracellular Ca2+ present or not. The protocol:
(§1) The differentiated HL60 cells or undifferentiated HL60 cells were washed twice with a Hepes-Na solution (140 mM NaCl, 4 mM KCl, 1 mM NaH2PO4, 1 mM MgCl2, 1.25 mM CaCl2, 5 mM Hepes, 11 mM glucose, 0.2% BSA, pH 7.4). Then, Ca^2+ sensitive fluorescence reagent, fura-2/AM, was added to the cell suspension (4 ml: final concentration, 4 μM). The reaction mixture was then shaken gently at room temperature for 60 minutes, shielded from light in order to incorporate fura-2 into the HL60 cells. Subsequently, the cells were washed twice with a Hepes-Na solution and a cell suspension was prepared at a final cell density of 1.0×10^6 cells/ml. One milliliter of the cell suspension was put into reaction cuvettes and stimulated with various samples under stirring at 30° C. Ratios of fluorescence intensity at 500 nm (F) for an excitation wavelength at 340 nm to that at 380 nm were measured with a fluorimeter (CAF-100, Japan Spectroscopic Co., Ltd.) and [Ca^2+]i was calculated following the formula: [Ca^2+]i(nM)=K×{(F−Fmin)/(Fmax−F)}×A/B, wherein
(§2) Fmax: a ratio of fluorescence intensity at 500 nm for an excitation wavelength at 340 nm to that at 380 nm after all cells were solubilized with 0.1% Triton X-100;
(§3) Fmin: a ratio of fluorescence intensity at 500-nm for an excitation wavelength at 340 nm to that at 380 nm after the whole calcium was chelated with 4 mM EGTA;
(§4) A: fluorescence intensity at 500-nm for an excitation wavelength at 380 nm, when all the calcium was chelated with EGTA;
(§5) B: fluorescence intensity at 500-nm for an excitation wavelength at 380 nm, when all cells were solubilized with Triton X-100;
(§6) K: 224 (nM) (the dissociation constant of fura-2).

The subject of data set [4] is undifferentiated HL60 cells. The data set is described as follows: Intracellular Ca2+ concentration (fura-2), undifferentiated HL60 cells. Format: cell-based, human. The procedure: as §1, §2, §3, §4, §5, §6
The next data set deals with G protein (Gi). The data set is described as follows: GTPase activity of purified Gi reconstituted on a phospholipid membrane. As to conditions: 3 μM. The class given is biochemical, rabbit. The text has this: G protein (Gi), which is present in neutrophils and involved in […] of fMLP, was extracted from the rabbit liver and purified (J. Biol. Chem. 267, 16237-16243, 1992). The purified Gi was reconstituted on a phospholipid membrane, and it was challenged by fCyt b (1-15) or COSP-1. We measured GTPase activity for these stimulations.

The test system of data set [5] is differentiated HL60 cells. The data set is described as follows: LDH leakage from HL60 cells. (Release of lactate dehydrogenase indicates damage to the cell membrane.)
Experimental: as §7, §8, §9
For a further data set, the target named is T1, fMLP receptor (Homo sapiens, UniProt P21462).
T1 construct: fMLP receptors are expressed on the surfaces of the cells as they differentiate into neutrophil-like cells; endogenous in cells; host or cells: HL60 cells differentiated with db-cAMP (whole cells)
T1 sequence (P21462 1-350): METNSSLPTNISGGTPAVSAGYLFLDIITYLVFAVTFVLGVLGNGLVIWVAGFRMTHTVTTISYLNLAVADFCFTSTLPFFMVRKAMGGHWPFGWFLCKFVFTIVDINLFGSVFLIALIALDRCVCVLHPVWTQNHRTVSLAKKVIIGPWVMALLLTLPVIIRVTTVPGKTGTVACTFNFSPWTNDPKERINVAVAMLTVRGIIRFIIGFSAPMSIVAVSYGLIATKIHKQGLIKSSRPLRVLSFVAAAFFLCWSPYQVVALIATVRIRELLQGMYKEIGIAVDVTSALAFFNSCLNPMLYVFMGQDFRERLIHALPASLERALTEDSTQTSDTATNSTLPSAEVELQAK
The data set is described as follows: [3H]fMLP binding to the fMLP receptor on differentiated HL60 cells. To be noted: [3H]fMLP 50 nM, 22° C., 60 minutes; COSP-1 up to 10 μM. The protocol:
The binding study of COSP-1 to the fMLP receptor was done using the differentiated HL60 cells. The differentiated HL60 cells were washed twice with HBHS. Then, the cells were suspended at 3.1×10^7 cells/ml and this suspension was transferred to tubes (2.5×10^6 cells/80 μl) and incubated at 22° C. for 10 minutes. Subsequently, various concentrations of COSP-1 or fMLP (10 μl) were added and incubated at 22° C. for 5 minutes. Thereafter, 10 μl of [^3H]fMLP (final concentration at 50 nM) was added and reaction was performed at 22° C. for 60 minutes. By adding 500 μl of ice-cooled PBS-BSA (10 mM phosphate, 120 mM NaCl, 0.5% BSA), the reaction was stopped. The treated cell suspension was then passed through a glass-fiber filter (Whatman GF/C) and the filter was washed three times with ice-cooled PBS-BSA (2 ml) to remove [^3H]fMLP not bound to the cells. The glass-fiber filter was dried and a scintillant was added to a solution for radioactivity measurement.
The measurements of binding of the fMLP to the fMLP receptors were expressed as the percentage (%/total) for a maximum binding which was shown as the radioactivity of [^3H]fMLP having specific binding to the receptors in the absence of an unlabelled ligand.

Take `CSCC[C@H](NC=O)C(=O)N[C@@H](CC(C)C)C(=O)N[C@@H](Cc1ccccc1)C(=O)O` [fMLP, formyl methionyl-leucyl-phenylalanine, reference compound]: the “β-HA secretion from monocyte and lymphocyte mixed cells (%/total)” value in data set [1] amounted to 21.8 ± 5.3 %/total. Further, in data set [1] (stimulation with 10 μM), the “secretion of β-HA in the monocyte and lymphocyte mixed cells” value is 21.8±5.3%. In addition, the “LDH leakage from the HL60 cells” value in data set [2] was “neither of COSP-1 and fMLP caused LDH leakage”. Further, in data set [3], the “increase of intracellular Ca2+ concentration in the absence of extracellular Ca2+” value was “reduced”, the “increase in intracellular Ca2+ concentration upon stimulation after PTX treatment” value is “almost completely inhibited”, the “intracellular Ca2+ concentration” value is reported as “increased” and the “intracellular Ca2+ concentration with or without extracellular Ca2+” value was “increased irrespective of whether extracellular Ca^2+ was present or not”. The “intracellular Ca2+ concentration” value in data set [4] is “did not increase”.
As for LSFLIPAGWVLSHLDHYKRSSAA-OH [COSP-1], the “stimulation of the GTPase activity of Gi” value with G protein (Gi) is listed as “about 6 fold”. The “LDH leakage from the HL60 cells” value in data set [5] (Example 6) was “neither of COSP-1 and fMLP caused LDH leakage”. Besides, the “LDH leakage out of the cells” value in data set [5] (differentiated HL60 cells, Example 4) is given as “no LDH was found to leak out”. Further, the “inhibition of the specific binding between [3H]fMLP and fMLP receptors” value at fMLP receptor is given as “not by COSP-1 even when its final concentration was reacted to 10 μM”. Moreover, in data set [3], the “increase of intracellular Ca2+ concentration in the absence of extracellular Ca2+” value is listed as “reduced”, the “increase in intracellular Ca2+ concentration upon stimulation after PTX treatment” value is given as “almost completely inhibited”, the “intracellular Ca2+ concentration” value is “increased” and the “intracellular Ca2+ concentration with or without extracellular Ca2+” value is given as “increased irrespective of whether extracellular Ca^2+ was present or not”. Also, the “intracellular Ca2+ concentration” value in data set [4] is reported as “did not increase”.
